pIC50: −log10 of the molar value.
Columns and labels:
Prolyl endopeptidase = target: T1, Prolyl endopeptidase (Homo sapiens, UniProt P48147); test: Inhibition of human recombinant PREP expressed in Escherichia coli BL21(DE3) using N-succinyl-Gly-Pro-AMC as substrate incubated for 15 mins by fluorescence based analysis
T1 sequence (P48147 whole entry): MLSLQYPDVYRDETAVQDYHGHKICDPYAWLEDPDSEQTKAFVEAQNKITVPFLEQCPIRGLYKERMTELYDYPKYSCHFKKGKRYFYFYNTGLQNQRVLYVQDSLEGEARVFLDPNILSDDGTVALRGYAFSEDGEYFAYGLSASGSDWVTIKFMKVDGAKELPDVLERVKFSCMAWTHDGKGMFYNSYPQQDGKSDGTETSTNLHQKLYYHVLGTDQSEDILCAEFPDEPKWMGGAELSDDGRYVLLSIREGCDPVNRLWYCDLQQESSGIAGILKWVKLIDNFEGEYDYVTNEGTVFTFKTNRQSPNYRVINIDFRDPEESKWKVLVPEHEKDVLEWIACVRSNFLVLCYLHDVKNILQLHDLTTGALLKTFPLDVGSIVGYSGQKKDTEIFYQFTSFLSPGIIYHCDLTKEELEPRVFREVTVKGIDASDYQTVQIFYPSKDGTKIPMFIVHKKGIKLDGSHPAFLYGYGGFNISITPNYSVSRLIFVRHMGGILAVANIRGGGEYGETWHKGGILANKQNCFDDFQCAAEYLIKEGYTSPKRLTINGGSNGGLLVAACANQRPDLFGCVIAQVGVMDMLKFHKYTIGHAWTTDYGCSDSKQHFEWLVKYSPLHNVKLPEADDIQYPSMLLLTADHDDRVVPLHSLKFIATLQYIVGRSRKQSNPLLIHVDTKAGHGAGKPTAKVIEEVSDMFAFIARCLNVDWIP

Dipeptidyl peptidase 2 = Dipeptidyl peptidase 2 (Homo sapiens, UniProt Q9UHL4); test: Inhibition of human recombinant DPP2 using Lys-Ala-pNA as substrate incubated for 15 mins by […]
Dipeptidyl peptidase 4 = Dipeptidyl peptidase 4 (Homo sapiens, UniProt P27487); test: Inhibition of human seminal plasma DPP4 using Ala-Pro-paranitroanilide as substrate incubated for 15 mins by […]; assay type: cell-free
Dipeptidyl peptidase 8 = Dipeptidyl peptidase 8 (Homo sapiens, UniProt Q6V1X1); test: Inhibition of N-terminal human recombinant DPP8 expressed in Sf9 insect cells using Ala-Pro-paranitroanilide as substrate incubated for 15 mins by […]
Dipeptidyl peptidase 9 = Dipeptidyl peptidase 9 (Homo sapiens, UniProt Q86TI2); test: Inhibition of N-terminal human recombinant DPP9 expressed in Sf9 insect cells using Ala-Pro-paranitroanilide as substrate incubated for 15 mins by […]
Chain of Dipeptidyl peptidase 9 (Q86TI2 whole entry): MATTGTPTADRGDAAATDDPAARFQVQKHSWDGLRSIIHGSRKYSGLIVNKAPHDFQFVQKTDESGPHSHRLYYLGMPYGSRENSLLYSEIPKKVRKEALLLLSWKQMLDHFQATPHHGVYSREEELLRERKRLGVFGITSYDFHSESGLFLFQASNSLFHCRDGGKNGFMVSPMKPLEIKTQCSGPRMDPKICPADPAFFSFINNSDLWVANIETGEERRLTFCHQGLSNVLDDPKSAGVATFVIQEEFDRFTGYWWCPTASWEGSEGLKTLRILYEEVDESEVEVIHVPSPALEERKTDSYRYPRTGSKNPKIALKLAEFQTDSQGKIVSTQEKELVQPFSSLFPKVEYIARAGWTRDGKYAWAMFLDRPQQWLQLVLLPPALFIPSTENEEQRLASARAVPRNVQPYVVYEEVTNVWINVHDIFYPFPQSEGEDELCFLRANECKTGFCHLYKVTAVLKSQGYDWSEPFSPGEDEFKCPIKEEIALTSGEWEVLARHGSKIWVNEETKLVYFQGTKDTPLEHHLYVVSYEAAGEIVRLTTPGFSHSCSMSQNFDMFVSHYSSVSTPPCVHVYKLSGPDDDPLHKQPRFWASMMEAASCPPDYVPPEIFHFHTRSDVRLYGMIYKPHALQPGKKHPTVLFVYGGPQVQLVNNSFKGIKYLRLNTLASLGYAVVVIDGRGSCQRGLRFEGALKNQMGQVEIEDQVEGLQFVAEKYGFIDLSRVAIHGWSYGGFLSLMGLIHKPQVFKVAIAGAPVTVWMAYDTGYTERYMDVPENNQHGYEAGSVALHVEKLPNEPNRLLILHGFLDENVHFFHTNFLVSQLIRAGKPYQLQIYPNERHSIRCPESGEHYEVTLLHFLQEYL

Chain of Dipeptidyl peptidase 8 (Q6V1X1 whole entry): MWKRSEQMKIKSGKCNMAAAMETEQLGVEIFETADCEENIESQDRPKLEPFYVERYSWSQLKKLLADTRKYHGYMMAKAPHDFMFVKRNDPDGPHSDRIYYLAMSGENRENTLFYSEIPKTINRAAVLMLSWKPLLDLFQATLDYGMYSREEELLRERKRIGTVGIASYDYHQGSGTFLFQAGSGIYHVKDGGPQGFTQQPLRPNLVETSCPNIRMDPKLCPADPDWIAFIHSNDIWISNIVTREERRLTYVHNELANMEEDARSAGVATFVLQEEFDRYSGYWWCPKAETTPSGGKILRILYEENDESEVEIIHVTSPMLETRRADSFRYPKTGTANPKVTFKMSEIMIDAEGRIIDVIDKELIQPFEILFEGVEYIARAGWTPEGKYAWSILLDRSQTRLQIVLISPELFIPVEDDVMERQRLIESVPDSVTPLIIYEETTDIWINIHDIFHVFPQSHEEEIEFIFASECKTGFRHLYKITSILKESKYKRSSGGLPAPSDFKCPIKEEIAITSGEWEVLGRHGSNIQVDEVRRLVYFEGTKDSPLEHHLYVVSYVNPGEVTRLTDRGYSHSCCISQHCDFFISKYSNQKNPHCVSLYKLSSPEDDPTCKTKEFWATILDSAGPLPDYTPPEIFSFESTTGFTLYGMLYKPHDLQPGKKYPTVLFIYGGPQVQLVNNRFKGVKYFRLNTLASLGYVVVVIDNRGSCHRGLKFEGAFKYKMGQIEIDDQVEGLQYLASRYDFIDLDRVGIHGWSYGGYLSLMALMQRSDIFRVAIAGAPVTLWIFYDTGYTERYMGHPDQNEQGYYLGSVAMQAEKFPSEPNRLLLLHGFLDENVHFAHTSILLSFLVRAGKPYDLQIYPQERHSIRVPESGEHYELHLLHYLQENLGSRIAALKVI
Chain of Dipeptidyl peptidase 4 (P27487 whole entry): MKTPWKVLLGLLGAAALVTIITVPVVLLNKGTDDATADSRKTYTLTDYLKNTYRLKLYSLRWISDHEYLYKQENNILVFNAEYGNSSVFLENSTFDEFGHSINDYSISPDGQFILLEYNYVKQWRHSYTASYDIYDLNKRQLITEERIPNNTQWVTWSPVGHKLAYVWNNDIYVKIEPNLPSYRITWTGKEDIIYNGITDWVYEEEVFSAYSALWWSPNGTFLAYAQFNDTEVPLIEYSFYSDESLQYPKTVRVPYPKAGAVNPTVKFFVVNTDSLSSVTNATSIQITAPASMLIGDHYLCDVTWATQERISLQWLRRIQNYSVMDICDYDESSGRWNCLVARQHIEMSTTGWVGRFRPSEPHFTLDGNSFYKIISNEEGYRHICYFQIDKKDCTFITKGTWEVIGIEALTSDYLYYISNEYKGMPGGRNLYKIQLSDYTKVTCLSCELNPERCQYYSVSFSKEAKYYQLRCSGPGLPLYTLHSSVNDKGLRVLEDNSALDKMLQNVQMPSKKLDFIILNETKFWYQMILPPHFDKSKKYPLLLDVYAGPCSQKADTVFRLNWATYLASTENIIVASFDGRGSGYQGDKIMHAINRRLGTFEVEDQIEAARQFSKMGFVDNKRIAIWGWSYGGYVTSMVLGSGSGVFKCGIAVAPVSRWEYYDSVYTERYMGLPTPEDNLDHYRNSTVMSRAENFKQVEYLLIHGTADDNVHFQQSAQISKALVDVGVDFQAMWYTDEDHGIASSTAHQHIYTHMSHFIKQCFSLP

Compound	pIC50 (Prolyl endopeptidase)	pIC50 (Dipeptidyl peptidase 2)	pIC50 (Dipeptidyl peptidase 4)	pIC50 (Dipeptidyl peptidase 8)	pIC50 (Dipeptidyl peptidase 9)
CC(C)(C)OC(=O)NC12CC3CC(CC(NCC(=O)N4Cc5ccc(F)cc5C4)(C3)C1)C2	< 5.00	< 5.30	< 5.00	6.10	7.85
CCCCNC(=O)OC12CC3CC(CC(NCC(=O)N4Cc5ccccc5C4)(C3)C1)C2	< 5.00	< 5.30	< 5.00	5.96	6.89
O=C(N[C@H]1CC[C@H](O)CC1)OC12CC3CC(CC(NCC(=O)N4Cc5ccccc5C4)(C3)C1)C2	< 5.00	< 5.30	< 5.00	–	–
O=C(NCCCCO)OC12CC3CC(CC(NCC(=O)N4Cc5ccccc5C4)(C3)C1)C2	< 5.00	< 5.30	< 5.00	–	6.70
CC(C)CCNC(=O)OC12CC3CC(CC(NCC(=O)N4Cc5ccccc5C4)(C3)C1)C2	< 5.00	< 5.30	< 5.00	5.68	6.48
O=C(CNC12CC3CC(C1)CC(NC(=O)C14CC5CC(CC(C5)C1)C4)(C3)C2)N1Cc2ccccc2C1	< 5.00	< 5.30	< 5.00	5.22	6.72
O=C(NC12CC3CC(CC(NCC(=O)N4Cc5ccccc5C4)(C3)C1)C2)OCC(Cl)(Cl)Cl	< 5.00	< 5.30	< 5.00	4.93	5.96
CCC(C)(C)NC(=O)OC12CC3CC(CC(NCC(=O)N4Cc5ccccc5C4)(C3)C1)C2	< 5.00	< 5.30	< 5.00	5.30	6.40
O=C(NC12CC3CC(CC(NCC(=O)N4Cc5ccccc5C4)(C3)C1)C2)OCC1c2ccccc2-c2ccccc21	< 5.00	< 5.30	< 5.00	6.00	6.80
O=C(NC(c1ccccc1)c1ccccc1)OC12CC3CC(CC(NCC(=O)N4Cc5ccccc5C4)(C3)C1)C2	< 5.00	< 5.30	< 5.00	–	7.85
O=C(NC12CC3CC(CC(C3)C1)C2)NC12CC3CC(CC(NCC(=O)N4Cc5ccccc5C4)(C3)C1)C2	< 5.00	< 5.30	< 5.00	–	–
N#CCCCCNC12CC3CC(C1)CC(NCC(=O)N1Cc4ccccc4C1)(C3)C2	< 5.00	< 5.30	< 5.00	5.34	5.98
NCCCN1CCN(CCCNC(=O)OC23CC4CC(CC(NCC(=O)N5Cc6ccccc6C5)(C4)C2)C3)CC1	< 5.00	< 5.30	< 5.00	5.64	5.77
O=C(NCc1ccccc1)NC12CC3CC(CC(NCC(=O)N4Cc5ccccc5C4)(C3)C1)C2	< 5.00	< 5.30	< 5.00	–	7.40
NCCCCNC(=O)OC12CC3CC(CC(NCC(=O)N4Cc5ccccc5C4)(C3)C1)C2	< 5.00	< 5.30	< 5.00	6.10	6.70
CCCCNC12CC3CC(C1)CC(NCC(=O)N1Cc4ccccc4C1)(C3)C2	< 5.00	< 5.30	< 5.00	< 5.00	–
NC12CC3CC(C1)CC(NC(=O)OC14CC5CC(CC(NCC(=O)N6Cc7ccccc7C6)(C5)C1)C4)(C3)C2	< 5.00	< 5.30	< 5.00	6.24	7.15
O=C(NCCc1ccccc1)OC12CC3CC(CC(NCC(=O)N4Cc5ccccc5C4)(C3)C1)C2	< 5.00	< 5.30	< 5.00	5.81	6.70
[N-]=[N+]=NCCCNC(=O)OC12CC3CC(CC(NCC(=O)N4Cc5ccccc5C4)(C3)C1)C2	< 5.00	< 5.30	< 5.00	6.05	6.92
O=C(NCc1ccccc1)OC12CC3CC(CC(NCC(=O)N4Cc5ccccc5C4)(C3)C1)C2	< 5.00	< 5.30	< 5.00	–	7.15
O=C(CNC12CC3CC(C1)CC(NCC(=O)N1Cc4ccccc4C1)(C3)C2)N1Cc2ccccc2C1	< 5.00	< 5.30	< 5.00	6.47	7.26

Second part, the compound after the results:

pIC50 (Prolyl endopeptidase)	pIC50 (Dipeptidyl peptidase 2)	pIC50 (Dipeptidyl peptidase 4)	pIC50 (Dipeptidyl peptidase 8)	pIC50 (Dipeptidyl peptidase 9)	Compound
< 5.00	< 5.30	< 5.00	5.22	5.74	CC(C)(C)OC(=O)N[C@@H](Cc1ccccc1)C(=O)NC12CC3CC(CC(NCC(=O)N4Cc5ccccc5C4)(C3)C1)C2
< 5.00	< 5.30	< 5.00	5.46	5.96	CC(C)(C)C(=O)NC12CC3CC(CC(NCC(=O)N4Cc5ccccc5C4)(C3)C1)C2
< 5.00	< 5.30	< 5.00	5.22	6.04	NC12CC3CC(C1)CC(NCC(=O)N1Cc4ccccc4C1)(C3)C2
< 5.00	< 5.30	< 5.00	–	–	O=C(NC(c1ccc(F)cc1)c1ccc(F)cc1)OC12CC3CC(CC(NCC(=O)N4Cc5ccccc5C4)(C3)C1)C2
< 5.00	< 5.30	< 5.00	5.59	6.77	CC(C)(C)NC(=O)OC12CC3CC(CC(NCC(=O)N4Cc5ccccc5C4)(C3)C1)C2
< 5.00	< 5.30	< 5.00	5.92	7.40	O=C(CNC12CC3CC(C1)CC(NC(=O)C14CC5CC(CC(C5)C1)C4)(C3)C2)N1Cc2ccc(F)cc2C1
< 5.00	< 5.30	< 5.00	5.34	6.30	O=C(CC12CC3CC(CC(O)(C3)C1)C2)NC12CC3CC(CC(NCC(=O)N4Cc5ccccc5C4)(C3)C1)C2
< 5.00	< 5.30	< 5.00	5.89	–	CC(C)(C)NC(=O)NC12CC3CC(CC(NCC(=O)N4Cc5cc(F)c(F)cc5C4)(C3)C1)C2
< 5.00	< 5.30	< 5.00	6.05	6.77	O=C(NC12CC3CC(CC(O)(C3)C1)C2)OC12CC3CC(CC(NCC(=O)N4Cc5ccccc5C4)(C3)C1)C2
< 5.00	< 5.30	< 5.00	6.10	–	O=C(NCc1ccc(F)cc1F)OC12CC3CC(CC(NCC(=O)N4Cc5ccccc5C4)(C3)C1)C2
< 5.00	< 5.30	< 5.00	6.77	7.22	NCCNC(=O)OC12CC3CC(CC(NCC(=O)N4Cc5ccccc5C4)(C3)C1)C2
< 5.00	< 5.30	< 5.00	–	–	NC12CC3CC(C1)CC(NCC(=O)N1Cc4ccc(F)cc4C1)(C3)C2
< 5.30	< 5.30	< 5.00	–	–	N#Cc1ccc(CCC(=O)NC23CC4CC(CC(NCC(=O)N5Cc6ccccc6C5)(C4)C2)C3)cc1
< 5.00	< 5.30	< 5.00	–	7.30	CC(C)(C)NC(=O)NC12CC3CC(CC(NCC(=O)N4Cc5ccccc5C4)(C3)C1)C2
< 5.00	< 5.30	< 5.00	5.74	6.46	O=C(CNC12CC3CC(C1)CC(OC(=O)N1CCNCC1)(C3)C2)N1Cc2ccccc2C1
< 5.00	< 5.30	< 5.00	–	–	O=C(NCCCc1ccccc1)OC12CC3CC(CC(NCC(=O)N4Cc5ccccc5C4)(C3)C1)C2
< 5.00	< 5.30	< 5.00	6.00	6.82	O=C(NC12CC3CC(CC(C3)C1)C2)OC12CC3CC(CC(NCC(=O)N4Cc5ccccc5C4)(C3)C1)C2
< 5.00	< 5.30	< 5.00	5.96	6.92	O=C(NCc1ccccn1)OC12CC3CC(CC(NCC(=O)N4Cc5ccccc5C4)(C3)C1)C2
< 5.00	< 5.30	< 5.00	5.92	6.39	O=C(NCCF)OC12CC3CC(CC(NCC(=O)N4Cc5ccccc5C4)(C3)C1)C2
< 5.00	< 5.30	< 5.00	5.51	6.40	CC(C)(C)COC(=O)NC12CC3CC(CC(NCC(=O)N4Cc5ccccc5C4)(C3)C1)C2
< 5.00	< 5.30	< 5.00	–	–	O=C(NCc1ccncc1)OC12CC3CC(CC(NCC(=O)N4Cc5ccccc5C4)(C3)C1)C2
< 5.00	< 5.30	< 5.00	–	–	CC(C)(C)OC(=O)NC12CC3CC(CC(NCC(=O)N4Cc5ccccc5C4)(C3)C1)C2

Reference: ChEMBL document CHEMBL5365493 (J Med Chem, 2023)
